From patent US12024510B2, “Pyrazolopyridine-diamides, their use as insecticide and processes for preparing the same” (PI INDUSTRIES LTD., priority 2017, dated 2024)

Tests used:
Format in all cases: in vivo
Spodoptera litura = Spodoptera litura diet incorporation method; conditions: third instar larvae, dead and moribund combined, 96 h after release
How it was run: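 Compound milled to <2 μm average particle size in surfactant, dispersed in water (500 ppm stock dispersion), then mixed into semi-synthetic diet at ~50° C. One starved third-instar larva per diet cell, 25° C, 70% RH; percent mortality (dead plus moribund) scored at 96 h.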

Plutella xylostella = assay: whole plant or invertebrate; conditions: foliar, cabbage leaf dip, second instar larvae, dead and moribund combined, 72 h after release
How it was run: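 Compounds milled with zirconia beads into surfactant dispersion (500 ppm stock), diluted in 0.01% Triton-X. Cabbage leaves dipped 10 s, shade-dried 20 min; one second-instar larva per cell, 25 °C, 70% RH. Mortality (dead plus moribund) scored at 72 h.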

Helicoverpa armigera = Helicoverpa armigera diet incorporation method; conditions: third instar larvae, dead and moribund combined, 96 h after release
How it was run: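 500 ppm stock of compound milled with surfactant and zirconia beads to average particle size below 2 μm, dispersed in DM water, diluted as needed, and mixed into semi-synthetic diet at about 50° C. Single starved third-instar larvae per cell, held at 25° C., 70% RH; dead plus moribund larvae scored as percent mortality at 96 h.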

Measured: mortality at 300 ppm

Cc1cc2ccnn2c(C(=O)NCC2CC2)c1NC(=O)c1cc(Br)nn1-c1ncccc1Cl [Compound 3, 6-(3-bromo-1-(3-chloropyridin-2-yl)-1H-pyrazole-5-carboxamido)-N-(cyclopropylmethyl)-5-methylpyrazolo[1,5-a]pyridine-7-carboxamide]
> 70%: all assays above

Cc1cc2ccnn2c(C(=O)NCCC#N)c1NC(=O)c1cc(Br)nn1-c1ncccc1Cl [Compound 22, 6-(3-bromo-1-(3-chloropyridin-2-yl)-1H-pyrazole-5-carboxamido)-N-(2-cyanoethyl)-5-methylpyrazolo[1,5-a]pyridine-7-carboxamide]
> 70%: all assays above
